Laboratory results: US4535075A, “Dithiolane derivative, process for producing the same and use thereof” (Nihon Nohyaku Co., Ltd., priority 1982, dated 1985)

Test system: liver damage induced by carbon tetrachloride
Test: Protective (Controlling) effect on liver damage induced by carbon tetrachloride
Assay type: in vivo, mice (dd strain)
Details: for p-GPT: CCl4 alone >2,100; for Liver Damage Index: average of 5 mice, CCl4 alone 5.0
Text: Protective (Controlling) Effect on liver damage induced by carbon tetrachloride.
Carbon tetrachloride administration induces centrilobular necrosis of the liver associated with loss of diphosphopyridine nucleotide, hepatic glycogen, coenzyme A and increase in neutral fat. Release of several enzymes from the hepatocytes, and increases of enzyme activities in the plasma are recognized as the result of the damage of the liver.
A suitable means for evaluating the degree induced by carbon tetrachloride or the degree of protection afforded by drugs is to study the plasma glutamic-pyruvic transaminase (p-GPT) activity. […]
After 6 hours, carbon tetrachloride was administered orally 0.05 ml/kg.
Animals were killed 24 hours after carbon tetrachloride administration, and the liver was grossly observed.
The plasma was obtained by centrifugation. Activity of p-GPT were determined by the method of Reitman and Frankel and expressed in Karmen units.
Score for liver damage index was as follows:
1 Each figure indicated average of 5 mice.

[1] = 250 mg/kg p.o., CCl4 0.05 ml/kg after 6 h, 24 h
[2] = 250 mg/kg p.o., CCl4 0.05 ml/kg after 6 h, 24 h, 0 Normal, 2 Slightly recognized, 4 Clearly observable damage, 6 Heavy damage

SMILES	p-GPT [1]	Liver Damage Index [2]	Liver Damage Index (administered at 100 mg/kg p.o., scale 0 Normal to 6 Heavy damage)	p-GPT (administered at 100 mg/kg p.o.)
COC(=O)C(C#N)=C1SC(O)C(O)S1 (stereo not shown) [Compound 24]	152 Karmen units	1.0	–	–
CCOC(=O)C(C#N)=C1SC(O)C(O)S1 (stereo not shown) [Compound 25]	–	2.0	–	–
CCCOC(=O)C(C#N)=C1SC(O)C(O)S1 (stereo not shown) [Compound 26]	24 Karmen units	0.0	–	–
CC(C)OC(=O)C(C#N)=C1SC(O)C(O)S1 (stereo not shown) [Compound 27, isopropyl 4,5-dihydroxy-1,3-dithiolan-2-ylidenecyanoacetate]	23 Karmen units	0.2	–	–
CCCCOC(=O)C(C#N)=C1SC(O)C(O)S1 (stereo not shown) [Compound 28]	80 Karmen units	0.4	–	–
CC(C)COC(=O)C(C#N)=C1SC(O)C(O)S1 (stereo not shown) [Compound 29]	175 Karmen units	1.0	–	–
CCCCCOC(=O)C(C#N)=C1SC(O)C(O)S1 (stereo not shown) [Compound 30]	116 Karmen units	0.6	–	–
CC(C)CCOC(=O)C(C#N)=C1SC(O)C(O)S1 (stereo not shown) [Compound 31]	105 Karmen units	0.6	–	–
CCCCCCOC(=O)C(C#N)=C1SC(O)C(O)S1 (stereo not shown) [Compound 33]	93 Karmen units	0.8	–	–
CCOC(=O)C(C(=O)CC)=C1SC(O)C(O)S1 (stereo not shown) [Compound 49]	23 Karmen units	0.4	–	–
CCOC(=O)C(C(=O)C(C)C)=C1SC(O)C(O)S1 (stereo not shown) [Compound 51]	172 Karmen units	1.6	–	–
CCOC(=O)C(C(=O)CC(C)C)=C1SC(O)C(O)S1 (stereo not shown) [Compound 53]	94 Karmen units	0.8	–	–
CCCCCCC(=O)C(C(=O)OCC)=C1SC(O)C(O)S1 (stereo not shown) [Compound 54]	188 Karmen units	2.6	–	–
CCOC(=O)C(C(=O)Cc1ccccc1)=C1SC(O)C(O)S1 (stereo not shown) [Compound 55]	105 Karmen units	1.8	–	–
CCOC(=O)C(C(=O)c1ccccc1)=C1SC(O)C(O)S1 (stereo not shown) [Compound 56]	–	–	4.0	> 1418 Karmen units
CC(=O)OC1SC(=C(C(=O)OC(C)C)C(=O)OC(C)C)SC1O (stereo not shown) [Compound 57, diisopropyl 4-hydroxy-5-methyl carbonyloxy-1,3-dithiolan-2-ylidenemalonate]	262.0 Karmen units	1.0	–	–
CC(=O)OC1SC(=C(C(=O)OC(C)C)C(=O)OC(C)C)SC1OC(C)=O (stereo not shown) [Compound 58]	42.0 Karmen units	1.0	–	–
CCCOC(=O)C(C(=O)OCCC)=C1SC(OC(C)=O)C(OC(C)=O)S1 (stereo not shown) [Compound 59]	40.9 Karmen units	0.4	–	–
CCC(C)OC(=O)C(C(=O)OC(C)CC)=C1SC(OC(C)=O)C(OC(C)=O)S1 (stereo not shown) [Compound 60]	203.0 Karmen units	0	–	–

SMILES	p-GPT [1]	Liver Damage Index [2]	Liver Damage Index (administered at 100 mg/kg p.o., scale 0 Normal to 6 Heavy damage)	p-GPT (administered at 100 mg/kg p.o.)
CCCOC(=O)C(C(C)=O)=C1SC(OC(C)=O)C(OC(C)=O)S1 (stereo not shown) [Compound 61]	1260 Karmen units	0.8	–	–
CCCOC(=O)C(C(=O)OCCC)=C1SC(OC(=O)C(C)(C)C)C(OC(=O)C(C)(C)C)S1 (stereo not shown) [Compound 62]	223.2 Karmen units	1.2	–	–
CCCOC(=O)C(C(C)=O)=C1SC(OC(=O)C(C)(C)C)C(OC(=O)C(C)(C)C)S1 (stereo not shown) [Compound 63]	402.6 Karmen units	1.8	–	–
CCCOC(=O)C(C(=O)OCCC)=C1SC(OC(=O)N(C)C)C(OC(=O)N(C)C)S1 (stereo not shown) [Compound 64, di-n-propyl 4,5-bis (N,N-dimethylcarbamoyloxy)-1,3-dithiolane-2-ylidenemalonate]	–	3.4	–	–
CCCOC(=O)C(C(C)=O)=C1SC(OC(=O)N(C)C)C(OC(=O)N(C)C)S1 (stereo not shown) [Compound 65]	498.7 Karmen units	1.6	–	–
CCCOC(=O)C(C(=O)OCCC)=C1SC(OC(=O)OCC)C(OC(=O)OCC)S1 (stereo not shown) [Compound 66]	53.8 Karmen units	0.2	–	–
CCCOC(=O)C(C(C)=O)=C1SC(OC(=O)OCC)C(OC(=O)OCC)S1 (stereo not shown) [Compound 67]	127.7 Karmen units	0.8	–	–
CCCOC(=O)C(C(=O)OCCC)=C1SC(OC(=O)CCC(=O)O)C(OC(=O)CCC(=O)O)S1 (stereo not shown) [Compound 68]	–	2.0	–	–
CC(C)OC(=O)C(C(=O)OC(C)C)=C1SC(OC(=O)CCC(=O)O)C(OC(=O)CCC(=O)O)S1 (stereo not shown) [Compound 69]	–	2.2	–	–
COC(=O)C(C(=O)OC)=C1SC(OC(=O)CCC(=O)O)C(OC(=O)CCC(=O)O)S1 (stereo not shown) [Compound 70]	121.0 Karmen units	1.2	–	–
CCC(C)OC(=O)C(C(=O)OC(C)CC)=C1SC(OC(=O)CCC(=O)O)C(OC(=O)CCC(=O)O)S1 (stereo not shown) [Compound 71, di-sec-butyl 4,5-bis(2'-carboxyethylcarbonyloxy)-1,3-dithiolan-2-ylidenemalonate]	–	2.2	–	–
COC(=O)C(C(=O)OC)=C1SC2OC(=O)OC2S1 (stereo not shown) [Compound 72]	32.3 Karmen units	0	–	–
CCOC(=O)C(C(=O)OCC)=C1SC2OC(=O)OC2S1 (stereo not shown) [Compound 73]	75.1 Karmen units	0.8	–	–
CCCOC(=O)C(C(=O)OCCC)=C1SC2OC(=O)OC2S1 (stereo not shown) [Compound 74]	38.8 Karmen units	0	–	–
CC(C)OC(=O)C(C(=O)OC(C)C)=C1SC2OC(=O)OC2S1 (stereo not shown) [Compound 75]	19.9 Karmen units	0.2	–	–
CCCCOC(=O)C(C(=O)OCCCC)=C1SC2OC(=O)OC2S1 (stereo not shown) [Compound 76]	84.8 Karmen units	0.6	–	–
CC(C)COC(=O)C(C(=O)OCC(C)C)=C1SC2OC(=O)OC2S1 (stereo not shown) [Compound 77]	21.2 Karmen units	0.2	–	–
CCC(C)OC(=O)C(C(=O)OC(C)CC)=C1SC2OC(=O)OC2S1 (stereo not shown) [Compound 78]	96.0 Karmen units	0	–	–
CC(C)(C)OC(=O)C(C(=O)OC(C)(C)C)=C1SC2OC(=O)OC2S1 (stereo not shown) [Compound 79]	66.0 Karmen units	0.8	–	–

SMILES	p-GPT [1]	Liver Damage Index [2]	Liver Damage Index (administered at 100 mg/kg p.o., scale 0 Normal to 6 Heavy damage)	p-GPT (administered at 100 mg/kg p.o.)
CCCCCOC(=O)C(C(=O)OCCCCC)=C1SC2OC(=O)OC2S1 (stereo not shown) [Compound 80]	71.1 Karmen units	0.4	–	–
CC(C)CCOC(=O)C(C(=O)OCCC(C)C)=C1SC2OC(=O)OC2S1 (stereo not shown) [Compound 81]	108.1 Karmen units	1.2	–	–
O=C1OC2SC(=C(C(=O)OC3CCCCC3)C(=O)OC3CCCCC3)SC2O1 (stereo not shown) [Compound 82]	159.7 Karmen units	0.4	–	–
O=C1OC2SC(=C(C(=O)OCc3ccccc3)C(=O)OCc3ccccc3)SC2O1 (stereo not shown) [Compound 83]	105.5 Karmen units	1.2	–	–
C=CCOC(=O)C(C(=O)OCC=C)=C1SC2OC(=O)OC2S1 (stereo not shown) [Compound 84]	13.9 Karmen units	0	–	–
C#CCOC(=O)C(C(=O)OCC#C)=C1SC2OC(=O)OC2S1 (stereo not shown) [Compound 85]	30.3 Karmen units	0	–	–
CC(C)COC(=O)C(C(=O)OC(C)C)=C1SC2OC(=O)OC2S1 (stereo not shown) [Compound 86]	> 436.4 Karmen units	0.6	–	–
COC(=O)C(C(C)=O)=C1SC2OC(=O)OC2S1 (stereo not shown) [Compound 87]	45.7 Karmen units	0.6	–	–
CCOC(=O)C(C(C)=O)=C1SC2OC(=O)OC2S1 (stereo not shown) [Compound 88]	211.6 Karmen units	1.4	–	–
CC(=O)C(C(=O)OC(C)C)=C1SC2OC(=O)OC2S1 (stereo not shown) [Compound 89]	26.3 Karmen units	0.4	–	–
CCCOC(=O)C(C(C)=O)=C1SC2OC(=O)OC2S1 (stereo not shown) [Compound 90]	23.2 Karmen units	0.3	–	–
CCCCOC(=O)C(C(C)=O)=C1SC2OC(=O)OC2S1 (stereo not shown) [Compound 91]	27.9 Karmen units	0.8	–	–
CC(=O)C(C(=O)OCC(C)C)=C1SC2OC(=O)OC2S1 (stereo not shown) [Compound 92]	29.4 Karmen units	0.8	–	–
CC(=O)C(C(=O)OC(C)(C)C)=C1SC2OC(=O)OC2S1 (stereo not shown) [Compound 94, 7-(methylcarbonyl-tert-butoxycarbonyl)methylene-3-oxo-2,4-dioxa-6,8-dithiabicyclo[3,3,0]octane]	26.5 Karmen units	0.8	–	–
CCCCCOC(=O)C(C(C)=O)=C1SC2OC(=O)OC2S1 (stereo not shown) [Compound 95]	28.2 Karmen units	0.8	–	–
CC(=O)C(C(=O)OCCC(C)C)=C1SC2OC(=O)OC2S1 (stereo not shown) [Compound 96]	15.4 Karmen units	0	–	–
C=CCOC(=O)C(C(C)=O)=C1SC2OC(=O)OC2S1 (stereo not shown) [Compound 98]	16.9 Karmen units	0	–	–
C#CCOC(=O)C(C(C)=O)=C1SC2OC(=O)OC2S1 (stereo not shown) [Compound 99]	18.4 Karmen units	0	–	–
CCCC(=O)C(C(=O)OCC)=C1SC2OC(=O)OC2S1 (stereo not shown) [Compound 101]	20.0 Karmen units	0.2	–	–
